# Data reported in patent US7538241B2, “Hsp90 family protein inhibitors” (Kyowa Hakko Kogyo Co., Ltd., priority 2003, dated 2009).
# System: human mammary cancer-derived KPL-4 cells
# Assay: Cell growth inhibition test with KPL-4 cells (WST-1)
# Assay type: cell-based
# Settings: KPL4, 72 hours, read-out: 50% growth inhibition concentration (GI50)
# Experimental: In a 96-well plate (Nunc), human mammary cancer-derived KPL-4 cells were sown in an amount of 2000 cells/well, and pre-incubated in 10% fetal calf serum (FCS)-containing Dulbecco Modified Eagle Medium (DMEM) (incubation medium) in a 5% carbon dioxide incubator at 37° C. for 24 hours. A dimethylsulfoxide (DMSO) solution of a test compound controlled at 10 mmol/L was stepwise diluted with the incubation medium, and added to each well in a total amount of 100 μL/well, and incubated in the 5% carbon dioxide incubator at 37° C. for 72 hours. After the incubation, WST-1 {4-[3-(4-Iodophenyl)-2-(4-nitrophenyl)-2H-5-tetrazolio]-1,3-benzene disulfonate}-labeled mixture (Rosh Diagnostic) diluted 2-fold with the incubation medium was added thereto in an amount of 20 μL/well, and incubated in the 5% carbon dioxide incubator at 37° C. for 1 hour. Using a microplate spectrophotometer (Biorad's Model 550), the absorbance at 450 nm and 655 nm of each well was measured. The cell growth inhibition activity of the test compound was indicated by the 50% growth inhibition concentration (GI50) thereof. A method of calculating GI50 is described. The absorbance at 655 nm of each well was subtracted from the absorbance at 450 nm thereof to give a value (absorbance difference). The absorbance difference obtained with the cells without being treated with the test compound was taken as 100%, and this was compared with the absorbance difference obtained with the cells treated with the test compound to give the concentration of the compound for 50% cell growth inhibition, and this is referred to as GI50.
row,SMILES,GI50 [µM]
1,"CCCc1c(O)cc(O)c(-c2ccccc2)c1CCOC [Compound 95, 5-(2-Methoxyethyl)-4-phenyl-6-propylbenzene-1,3-diol]",≤ 50
2,"COCCc1c(CC(C)C)c(O)cc(O)c1-c1ccccc1 [Compound 96, 6-Isobutyl-5-(2-methoxyethyl)-4-phenylbenzene-1,3-diol]",≤ 50
3,"COCCCc1c(Br)c(O)cc(O)c1-c1ccccc1 [Compound 97, 6-Bromo-5-(3-methoxypropyl)-4-phenylbenzene-1,3-diol]",≤ 50
4,"CNCCc1c(Br)c(O)cc(O)c1-c1ccccc1 [Compound 98, 6-Bromo-5-[2-(N-methylamino)ethyl]-4-phenylbenzene-1,3-diol]",≤ 50
5,"CN(C)CCc1c(Br)c(O)cc(O)c1-c1ccccc1 [Compound 99, 6-Bromo-5-[2-(N,N-dimethylamino)ethyl]-4-phenylbenzene-1,3-diol]",≤ 50
6,"COCCNCCc1c(Br)c(O)cc(O)c1-c1ccccc1 [Compound 100, 6-Bromo-5-{2-[N-(2-methoxyethyl)amino]ethyl}-4-phenylbenzene-1,3-diol]",≤ 50
7,"COCCNCc1c(Br)c(O)cc(O)c1-c1ccccc1 [Compound 103, 6-Bromo-5-[N-(2-methoxyethyl)aminomethyl]-4-phenylbenzene-1,3-diol]",≤ 50
8,"COCCc1c(Br)c(O)cc(O)c1-c1cccc(OC)c1 [Compound 105, 6-Bromo-5-(2-methoxyethyl)-4-(3-methoxyphenyl)benzene-1,3-diol]",≤ 50
9,"COc1cccc(-c2c(O)cc(O)c(Br)c2CC(C)=NO)c1 [Compound 107, 6-Bromo-5-[2-(hydroxyimino)propyl]-4-(3-methoxyphenyl)benzene-1,3-diol]",≤ 50
10,"Oc1cc(O)c(-c2ccccc2)c(CCOCC2CCCO2)c1Br (stereo not drawn) [Compound 109, 6-Bromo-5-[2-(oxolan-2-ylmethoxy)ethyl]-4-phenylbenzene-1,3-diol]",≤ 50
11,"OCCOCCc1c(Br)c(O)cc(O)c1-c1ccccc1 [Compound 110, 6-Bromo-5-[2-(2-hydroxyethoxy)ethyl]-4-phenylbenzene-1,3-diol]",≤ 50
12,"COCOCCc1c(Br)c(O)cc(O)c1-c1ccccc1 [Compound 111, 6-Bromo-5-[2-(methoxymethoxy)ethyl]-4-phenylbenzene-1,3-diol]",≤ 50
13,"Oc1cc(O)c(-c2ccccc2)c(C2OCCO2)c1Br [Compound 112, 6-Bromo-5-(1,3-dioxolan-2-yl)-4-phenylbenzene-1,3-diol]",≤ 50
14,"CC(=O)CCc1c(Br)c(O)cc(O)c1-c1ccccc1 [Compound 114, 4-(2-Bromo-3,5-dihydroxy-6-phenylphenyl)butan-2-one]",≤ 50
15,"CC(O)CCc1c(Br)c(O)cc(O)c1-c1ccccc1 (stereo not drawn) [Compound 115, 5-(3-Hydroxybutyl)-6-bromo-4-phenylbenzene-1,3-diol]",≤ 50
16,"COCCc1c(Br)c(O)cc(O)c1-c1cccc(C(N)=O)c1 [Compound 117, 3-[5-Bromo-2,4-dihydroxy-6-(2-methoxyethyl)phenyl]benzamide]",≤ 50
17,"COCCc1c(C(C)=O)c(O)cc(O)c1-c1cccc(C(=O)OC)c1 [Compound 119, Methyl 3-[5-acetyl-2,4-dihydroxy-6-(2-methoxyethyl)phenyl]benzoate]",≤ 50
18,"COCCc1c(C(C)=O)c(O)cc(O)c1-c1cccc(-c2ccccc2)c1 [Compound 120, 1-[2,4-Dihydroxy-6-(2-methoxyethyl)-5-(3-phenylphenyl)phenyl]ethanone]",≤ 50
19,"CCOc1cccc(-c2c(O)cc(O)c(C(C)=O)c2CCOC)c1 [Compound 121, 1-[2,4-Dihydroxy-5-(3-ethoxyphenyl)-6-(2-methoxyethyl)phenyl]ethanone]",≤ 50
20,"CC(=O)c1c(O)cc(O)c(-c2ccccc2)c1CCCO [Compound 124, 1-[2,4-Dihydroxy-6-(3-hydroxypropyl)-5-phenylphenyl]ethanone]",≤ 50
21,"COCCc1c(C(=O)C(F)(F)F)c(O)cc(O)c1-c1ccccc1 [Compound 125, 1-[2,4-Dihydroxy-6-(2-methoxyethyl)-5-phenylphenyl]-2,2,2-trifluoroethanone]",≤ 50
22,"CCc1c(OC)cc(O)c(-c2ccccc2)c1CC(=O)OC [Compound 126, Methyl 6-ethyl-3-hydroxy-5-methoxy-2-phenylphenylacetate]",≤ 50
23,"COCCc1c(C(=O)OC)c(O)cc(O)c1-c1ccccc1 [Compound 128, Methyl 2,4-dihydroxy-6-(2-methoxyethyl)-5-phenylbenzoate]",≤ 50

row,SMILES,GI50 [µM]
1,"COCCc1c(OC)c(O)cc(O)c1-c1ccccc1 [Compound 129, 6-Methoxy-5-(2-methoxyethyl)-4-phenylbenzene-1,3-diol]",≤ 50
2,"CCc1c(O)cc(O)c(-c2cccc(C(=O)OC)c2)c1CCOC [Compound 131, Methyl 3-[5-ethyl-2,4-dihydroxy-6-(2-methoxyethyl)phenyl]benzoate]",≤ 50
3,"CCc1c(O)cc(O)c(-c2cccc(-c3ccccc3)c2)c1CCOC [Compound 132, 6-Ethyl-5-(2-methoxyethyl)-4-(3-phenylphenyl)benzene-1,3-diol]",≤ 50
4,"CCOc1cccc(-c2c(O)cc(O)c(CC)c2CCOC)c1 [Compound 133, 4-(3-Ethoxyphenyl)-6-ethyl-5-(2-methoxyethyl)benzene-1,3-diol]",≤ 50
5,"COCCc1c(C(C)=O)c(O)cc(O)c1-c1cccc(OCc2ccccc2)c1 [Compound 135, 1-[2,4-Dihydroxy-5-(3-benzyloxyphenyl)-6-(2-methoxyethyl)phenyl]ethanone]",≤ 50
6,"COCCN(C)C(=O)Cc1c(C(C)=O)c(O)cc(O)c1-c1cccc(OC)c1 [Compound 141, 2-[2-Acetyl-3,5-dihydroxy-6-(3-methoxyphenyl)phenyl]-N-(2-methoxyethyl)-N-methylacetamide]",≤ 50
7,"CCc1c(O)cc(O)c(-c2cccc(OC)c2)c1CC(=O)OC [Compound 142, Methyl 2-ethyl-3,5-dihydroxy-6-(3-methoxyphenyl)phenylacetate]",≤ 50
8,"C=CCOCCc1c(CC)c(O)cc(O)c1-c1ccccc1 [Compound 144, 5-(2-Allyloxyethyl)-6-ethyl-4-phenylbenzene-1,3-diol]",≤ 50
9,"CCc1c(O)cc(O)c(-c2cccc(OC)c2)c1CC(=O)N(C)CCOC [Compound 150, 2-[2-Ethyl-3,5-dihydroxy-6-(3-methoxyphenyl)phenyl]-N-(2-methoxyethyl)-N-methylacetamide]",≤ 50
10,"COCCc1c(-c2ccccc2)c(O)cc(O)c1C(C)C [Compound 151, 6-Isopropyl-5-(2-methoxyethyl)-4-phenylbenzene-1,3-diol]",≤ 50
11,"COCCOCCc1cc(OS(N)(=O)=O)cc(O)c1-c1ccccc1 [Compound 152, 3-(2-Methoxyethoxy)ethyl-2-phenyl-5-(sulfamoyloxy)phenol]",≤ 50
12,"CCc1c(O)cc(O)c(-c2cccc(CCC(C)=O)c2)c1CCOCCOC [Compound 153, 4-(3-{5-Ethyl-2,4-dihydroxy-6-[2-(2-methoxyethoxy)ethyl]phenyl}phenyl)butan-2-one]",≤ 50
13,"CCc1c(O)cc(O)c(-c2cccc(CCC(C)O)c2)c1CCOCCOC (stereo not drawn) [Compound 154, 6-Ethyl-4-[3-(3-hydroxybutyl)phenyl]-5-[2-(2-methoxyethoxy)ethyl]benzene-1,3-diol]",≤ 50
14,"CCc1c(O)cc(O)c(-c2ccccc2)c1CCOCC(N)=O [Compound 155, 2-[2-(2-Ethyl-3,5-dihydroxy-6-phenylphenyl)ethoxy]acetamide]",≤ 50
15,"CCc1c(O)cc(O)c(-c2ccccc2)c1CCOCC(=O)N(C)C [Compound 157, 2-[2-(2-Ethyl-3,5-dihydroxy-6-phenylphenyl)ethoxy]-N,N-dimethylacetamide]",≤ 50
16,"CCc1c(O)cc(O)c(-c2ccccc2)c1CCCOCC(N)=O [Compound 158, 2-[3-(2-Ethyl-3,5-dihydroxy-6-phenylphenyl)propoxy]acetamide]",≤ 50
17,"CCc1c(O)cc(O)c(-c2ccccc2)c1CCCOCC(=O)N(C)C [Compound 160, 2-[3-(2-Ethyl-3,5-dihydroxy-6-phenylphenyl)propoxy]-N,N-dimethylacetamide]",≤ 50
18,"CCc1c(O)cc(O)c(-c2ccccc2)c1CCCOCC(=O)NCCOC [Compound 168, 2-[3-(2-Ethyl-3,5-dihydroxy-6-phenylphenyl)propoxy]-N-(2-methoxyethyl)acetamide]",≤ 50
19,"CCc1c(O)cc(O)c(-c2ccccc2)c1CCC(O)CC(O)CO (stereo not drawn) [Compound 169, 6-Ethyl-4-phenyl-5-(3,5,6-trihydroxyhexyl)benzene-1,3-diol]",≤ 50
20,"CCc1c(O)cc(O)c(-c2ccccc2)c1CCOCCCOC [Compound 176, 6-Ethyl-5-[2-(3-methoxypropoxy)ethyl]-4-phenylbenzene-1,3-diol]",≤ 50
21,"CCc1c(O)cc(O)c(-c2ccccc2)c1CC(O)CC(O)CO (stereo not drawn) [Compound 177, 6-Ethyl-4-phenyl-5-(2,4,5-trihydroxypentyl)benzene-1,3-diol]",≤ 50
22,"CCc1c(O)cc(O)c(-c2ccccc2)c1CCOCC(O)COCCO (stereo not drawn) [Compound 179, 6-Ethyl-5-{2-[2-hydroxy-3-(2-hydroxyethoxy)propoxy]ethyl}-4-phenylbenzene-1,3-diol]",≤ 50
